Patent publication US12338256B2, “Aza-tetracyclic oxazepine compounds and uses thereof” (Genentech, Inc., priority 2022, dated 2025)

Legend:
Format in all cases: cell-based
[1] = tested on: HPAC (homozygous mutant KRAS G12D human pancreatic cell line); assay: KRAS 3D-Cell Proliferation Assay, HPAC (Example 503); conditions: Homo sapiens, HPAC, 168 h, HPAC 3D culture, 7 days, CellTiter-Glo 3D; read-out: Prolif HPAC 3D ATP IC50
Method in brief: (§1)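 Luminescent ATP readout (CellTiter-Glo 3D, with mechanical mixing) measures growth of cells cultured in 3D after a 7-day compound exposure at 37° C. Percent inhibition is referenced to vehicle (DMSO) and 1 μM staurosporine controls, and IC50 comes from a four-parameter Hill fit.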

[2] = tested on: AsPC-1 (homozygous mutant KRAS G12D human pancreatic cell line); assay: KRAS 3D-Cell Proliferation Assay, AsPC-1 (Example 503); conditions: Homo sapiens, ASPC1, 168 h, AsPC-1 3D culture, 7 days, CellTiter-Glo 3D; read-out: Prolif AsPC-1 3D ATP IC50
Method in brief: as §1

[3] = tested on: PC-9 (KRAS wild type human lung adenocarcinoma cell line); assay: KRAS 3D-Cell Proliferation Assay, PC-9 (Example 503); conditions: 168 h, PC-9 3D culture, 7 days, CellTiter-Glo 3D, read-out: Prolif PC9 3D ATP IC50
Method in brief: as §1

[4] = tested on: H1975 (KRAS wild type human lung adenocarcinoma cell line); assay: KRAS 3D-Cell Proliferation Assay, H1975 (Example 503); conditions: Homo sapiens, NCI-H1975, 168 h, H1975 3D culture, 7 days, CellTiter-Glo 3D; read-out: Prolif H1975 3D ATP IC50
Method in brief: as §1

Question: What does the source list for C[C@@H]1Oc2nc(-c3cc(N)cc(F)c3C(F)(F)F)c(F)c3nc(OC[C@@]45CCCN4C[C@H](F)C5)nc(c23)N2C[C@H]3CC[C@H](N3)[C@@H]12 [Compound 17, 3-fluoro-5-((5S,5aS,6S,9R)-1-fluoro-12-(((2R,7aS)-2-fluorotetrahydro-1H-pyrrolizin-7a(5H)-yl)methoxy)-5-methyl-5a,6,7,8,9,10-hexahydro-5H-4-oxa-3,10a,11,13,14-pentaaza-6,9-methanonaphtho[1,8-ab]heptalen-2-yl)-4-(trifluoromethyl)aniline]?
Answer: IC50 [1]: 0.62 nM; IC50 [2]: 1.71 nM; IC50 [3]: 7910 nM; IC50 [4]: 1340 nM

Question: Cc1cc(-c2nc3c4c(nc(OC[C@@]56CCCN5C[C@H](F)C6)nc4c2F)N2C[C@H]4CC[C@H](N4)[C@H]2[C@H](C)O3)c(F)c(N)c1F [Compound 18, 2,6-difluoro-3-((5S,5aS,6S,9R)-1-fluoro-12-(((2R,7aS)-2-fluorotetrahydro-1H-pyrrolizin-7a(5H)-yl)methoxy)-5-methyl-5a,6,7,8,9,10-hexahydro-5H-4-oxa-3,10a,11,13,14-pentaaza-6,9-methanonaphtho[1,8-ab]heptalen-2-yl)-5-methylaniline] was tested. Which IC50 [1] did it give?
Answer: 5220 nM

Question: And the IC50 [2]?
Answer: 5590 nM

Question: And the IC50 [3]?
Answer: 7910 nM

Question: And the IC50 [4]?
Answer: 20000 nM

Question: What does the source list for Cc1c(F)c(N)cc(-c2nc3c4c(nc(OC[C@]56CCN5CC(F)(F)C6)nc4c2F)N2C[C@H]4CC[C@H](N4)[C@H]2[C@H](C)O3)c1C(F)(F)F [Compound 24, 5-((5S,5aS,6S,9R)-12-(((R)-3,3-difluoro-1-azabicyclo[3.2.0]heptan-5-yl)methoxy)-1-fluoro-5-methyl-5a,6,7,8,9,10-hexahydro-5H-4-oxa-3,10a,11,13,14-pentaaza-6,9-methanonaphtho[1,8-ab]heptalen-2-yl)-2-fluoro-3-methyl-4-(trifluoromethyl)aniline]?
Answer: IC50 [1]: 1.89 nM; IC50 [2]: 4.29 nM; IC50 [3]: 7870 nM; IC50 [4]: 6710 nM

Question: Which IC50 [1] does the source give for C[C@@H]1Oc2nc(-c3cc(O)cc4ccccc34)c(F)c3nc(OC[C@]45CCN4CC(F)(F)C5)nc(c23)N2C[C@H]3CC[C@H](N3)[C@@H]12 [Compound 25, 4-((5S,5aS,6S,9R)-12-(((R)-3,3-difluoro-1-azabicyclo[3.2.0]heptan-5-yl)methoxy)-1-fluoro-5-methyl-5a,6,7,8,9,10-hexahydro-5H-4-oxa-3,10a,11,13,14-pentaaza-6,9-methanonaphtho[1,8-ab]heptalen-2-yl)naphthalen-2-ol] here?
Answer: 78.8 nM

Question: And the IC50 [2]?
Answer: 464 nM

Question: What about the IC50 [3] of the same molecule?
Answer: 11000 nM

Question: What about the IC50 [4] of the same molecule?
Answer: 10700 nM

Question: What does the source list for Cc1c(F)c(N)cc(-c2nc3c4c(nc(OC[C@@H]5C[C@@H](F)CN5C)nc4c2F)N2C[C@H]4CC[C@H](N4)[C@H]2[C@H](C)O3)c1C(F)(F)F [Compound 26, 2-Fluoro-5-((5S,5aS,6S,9R)-1-fluoro-12-(((2S,4R)-4-fluoro-1-methylpyrrolidin-2-yl)methoxy)-5-methyl-5a,6,7,8,9,10-hexahydro-5H-4-oxa-3,10a,11,13,14-pentaaza-6,9-methanonaphtho[1,8-ab]heptalen-2-yl)-3-methyl-4-(trifluoromethyl)aniline]?
Answer: IC50 [1]: 3.24 nM; IC50 [2]: 5.19 nM; IC50 [3]: 7640 nM; IC50 [4]: 1540 nM

Question: How did the IC50 [1] turn out when C[C@@H]1Oc2nc(-c3cccc4cccc(Cl)c34)c(F)c3nc(OC[C@@]45CCCN4CC4(CC4(F)F)C5)nc(c23)N2C[C@H]3CC[C@H](N3)[C@@H]12 (stereo partly drawn) [Compound 27, (5S,5aS,6S,9R)-2-(8-chloronaphthalen-1-yl)-12-(((7a′S)-2,2-difluorodihydro-1′H,3′H-spiro[cyclopropane-1,2′-pyrrolizin]-7a′(5′H)-yl)methoxy)-1-fluoro-5-methyl-5a,6,7,8,9,10-hexahydro-5H-4-oxa-3,10a,11,13,14-pentaaza-6,9-methanonaphtho[1,8-ab]heptalene] was run?
Answer: 68.1 nM

Question: And the IC50 [2]?
Answer: 32.1 nM

Question: And the IC50 [3]?
Answer: 2780 nM

Question: What about the IC50 [4] of the same molecule?
Answer: 2390 nM

Question: With CCc1cccc2cc(O)cc(-c3nc4c5c(nc(OCC67COC(C6)C7)nc5c3F)N3C[C@H]5CC[C@H](N5)[C@H]3[C@H](C)O4)c12 [Compound 28, 4-((5S,5aS,6S,9R)-12-((2-oxabicyclo[2.1.1]hexan-4-yl)methoxy)-1-fluoro-5-methyl-5a,6,7,8,9,10-hexahydro-5H-4-oxa-3,10a,11,13,14-pentaaza-6,9-methanonaphtho[1,8-ab]heptalen-2-yl)-5-ethylnaphthalen-2-ol] as the molecule, how does the IC50 [1] read?
Answer: 257 nM

Question: What about the IC50 [2] of the same molecule?
Answer: 363 nM

Question: What about the IC50 [3] of the same molecule?
Answer: 11000 nM

Question: And the IC50 [4]?
Answer: 20000 nM

Question: Cc1c(F)c(N)cc(-c2nc3c4c(nc(OCC56CCN5C[C@H](F)C6)nc4c2F)N2C[C@H]4CC[C@H](N4)[C@H]2[C@H](C)O3)c1C(F)(F)F (stereo partly drawn) [Compound 29, 2-fluoro-5-((5S,5aS,6S,9R)-1-fluoro-12-(((3R)-3-fluoro-1-azabicyclo[3.2.0]heptan-5-yl)methoxy)-5-methyl-5a,6,7,8,9,10-hexahydro-5H-4-oxa-3,10a,11,13,14-pentaaza-6,9-methanonaphtho[1,8-ab]heptalen-2-yl)-3-methyl-4-(trifluoromethyl)aniline] was tested. Which IC50 [1] did it give?
Answer: 7.76 nM

Question: What about the IC50 [2] of the same molecule?
Answer: 4.98 nM

Question: And the IC50 [3]?
Answer: 8190 nM

Question: What about the IC50 [4] of the same molecule?
Answer: 6110 nM

Question: With C[C@@H]1Oc2nc(-c3cncc4ccccc34)c(F)c3nc(OC[C@@]45CCCN4CC4(CC4(F)F)C5)nc(c23)N2C[C@H]3CC[C@H](N3)[C@@H]12 (stereo partly drawn) [Compound 30, (5S,5aS,6S,9R)-12-(((7a′S)-2,2-difluorodihydro-1′H,3′H-spiro[cyclopropane-1,2′-pyrrolizin]-7a′(5′H)-yl)methoxy)-1-fluoro-2-(isoquinolin-4-yl)-5-methyl-5a,6,7,8,9,10-hexahydro-5H-4-oxa-3,10a,11,13,14-pentaaza-6,9-methanonaphtho[1,8-ab]heptalene] as the molecule, how does the IC50 [1] read?
Answer: 154 nM

Question: What about the IC50 [2] of the same molecule?
Answer: 166 nM

Question: And the IC50 [3]?
Answer: 3810 nM

Question: What about the IC50 [4] of the same molecule?
Answer: 2890 nM

Question: What does the source list for Cc1c(F)c(N)cc(-c2nc3c4c(nc(OC[C@@H]5CC[C@H]6COCCN65)nc4c2F)N2C[C@H]4CC[C@H](N4)[C@H]2[C@H](C)O3)c1C(F)(F)F [Compound 31, 2-fluoro-5-((5S,5aS,6S,9R)-1-fluoro-12-(((6S,8aS)-hexahydro-1H-pyrrolo[2,1-c][1,4]oxazin-6-yl)methoxy)-5-methyl-5a,6,7,8,9,10-hexahydro-5H-4-oxa-3,10a,11,13,14-pentaaza-6,9-methanonaphtho[1,8-ab]heptalen-2-yl)-3-methyl-4-(trifluoromethyl)aniline]?
Answer: IC50 [1]: 0.808 nM; IC50 [2]: 1.64 nM; IC50 [3]: 3790 nM; IC50 [4]: 423 nM

Question: Cc1cc(N)c(F)c(-c2nc3c4c(nc(OC[C@@]56CCCN5C[C@H](F)C6)nc4c2F)N2C[C@H]4CC[C@H](N4)[C@H]2[C@H](C)O3)c1C(F)(F)F [Compound 34, 2-Fluoro-3-((5S,5aS,6S,9R)-1-fluoro-12-(((2R,7aS)-2-fluorotetrahydro-1H-pyrrolizin-7a(5H)-yl)methoxy)-5-methyl-5a,6,7,8,9,10-hexahydro-5H-4-oxa-3,10a,11,13,14-pentaaza-6,9-methanonaphtho[1,8-ab]heptalen-2-yl)-5-methyl-4-(trifluoromethyl)aniline] was tested. Which IC50 [1] did it give?
Answer: 0.54 nM

Question: And the IC50 [2]?
Answer: 0.692 nM

Question: What about the IC50 [3] of the same molecule?
Answer: 6950 nM

Question: What about the IC50 [4] of the same molecule?
Answer: 340 nM

Question: For C[C@@H]1Oc2nc(-c3c(C(F)(F)F)ccc(N)c3F)c(F)c3nc(OC[C@@]45CCCN4C[C@H](F)C5)nc(c23)N2C[C@H]3CC[C@H](N3)[C@@H]12 [Compound 35, 2-fluoro-3-((5S,5aS,6S,9R)-1-fluoro-12-(((2R,7aS)-2-fluorotetrahydro-1H-pyrrolizin-7a(5H)-yl)methoxy)-5-methyl-5a,6,7,8,9,10-hexahydro-5H-4-oxa-3,10a,11,13,14-pentaaza-6,9-methanonaphtho[1,8-ab]heptalen-2-yl)-4-(trifluoromethyl)aniline], which IC50 [1] is on record?
Answer: 7.4 nM

Question: And the IC50 [2]?
Answer: 10.6 nM

Question: What about the IC50 [3] of the same molecule?
Answer: 9170 nM

Question: What about the IC50 [4] of the same molecule?
Answer: 5870 nM

Question: Cc1cc(N)c(F)c(-c2nc3c4c(nc(OC[C@@]56CCCN5C[C@H](F)C6)nc4c2F)N2C[C@H]4CC[C@H](N4)[C@H]2CO3)c1C(F)(F)F [Compound 36, 2-fluoro-3-((5aS,6S,9R)-1-fluoro-12-(((2R,7aS)-2-fluorotetrahydro-1H-pyrrolizin-7a(5H)-yl)methoxy)-5a,6,7,8,9,10-hexahydro-5H-4-oxa-3,10a,11,13,14-pentaaza-6,9-methanonaphtho[1,8-ab]heptalen-2-yl)-5-methyl-4-(trifluoromethyl)aniline] was tested. Which IC50 [1] did it give?
Answer: 31.4 nM

Question: What about the IC50 [2] of the same molecule?
Answer: 52.4 nM

Question: What about the IC50 [3] of the same molecule?
Answer: 6110 nM

Question: What about the IC50 [4] of the same molecule?
Answer: 1130 nM

Question: How did the IC50 [1] turn out when C[C@@H]1Oc2nc(-c3cncc4cccc(Cl)c34)c(F)c3nc(OC[C@@]45CCCN4C[C@H](F)C5)nc(c23)N2C[C@H]3CC[C@H](N3)[C@@H]12 [Compound 38, (5S,5aS,6S,9R)-2-(5-Chloroisoquinolin-4-yl)-1-fluoro-12-(((2R,7aS)-2-fluorotetrahydro-1H-pyrrolizin-7a(5H)-yl)methoxy)-5-methyl-5a,6,7,8,9,10-hexahydro-5H-4-oxa-3,10a,11,13,14-pentaaza-6,9-methanonaphtho[1,8-ab]heptalene] was run?
Answer: 96.1 nM

Question: What about the IC50 [2] of the same molecule?
Answer: 270 nM

Question: What about the IC50 [3] of the same molecule?
Answer: 7380 nM

Question: What about the IC50 [4] of the same molecule?
Answer: 2830 nM
